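Values below derive from 48-hour exposures of cells grown in 96-well plates, with endpoints linearly interpolated between the two concentrations bracketing the appropriate inhibition level. The concentration for 50% growth inhibition is given as GI50. TGI marks complete inhibition of growth.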
Key:
Test in all cases: growth of human tumour cells (NCI), 48 h
SF-295 CNS = tested on: SF-295 CNS
SW-620 colon = tested on: SW-620 colon
BT-549 breast = tested on: BT-549 breast
786-0 renal = tested on: 786-0 renal
SNB-75 CNS = tested on: SNB-75 CNS
HL-60(TB) leukemia = tested on: HL-60(TB) leukemia
SF-268 CNS = tested on: SF-268 CNS
LOX IMVI melanoma = tested on: LOX IMVI melanoma
OVCAR-5 ovarian = tested on: OVCAR-5 ovarian
MOLT-4 leukemia = tested on: MOLT-4 leukemia
NCI-H460 lung = tested on: NCI-H460 lung
HOP-92 NSCLC = tested on: HOP-92 NSCLC
HT29 colon = tested on: HT29 colon
OVCAR-8 ovarian = tested on: OVCAR-8 ovarian
OVCAR-3 ovarian = tested on: OVCAR-3 ovarian
HCC-2998 colon = tested on: HCC-2998 colon
SF-539 CNS = tested on: SF-539 CNS
CAKI-1 renal = tested on: CAKI-1 renal
RPMI-8226 leukemia = tested on: RPMI-8226 leukemia
T-47D breast = tested on: T-47D breast
MDA-MB-435 = tested on: MDA-MB-435
UACC-62 melanoma = tested on: UACC-62 melanoma
COLO 205 colon = tested on: COLO 205 colon
HCT-116 colon = tested on: HCT-116 colon
SNB-19 CNS = tested on: SNB-19 CNS
HCT-15 colon = tested on: HCT-15 colon
PC-3 prostate = tested on: PC-3 prostate
SK-MEL-2 melanoma = tested on: SK-MEL-2 melanoma
MDA-MB-231 breast = tested on: MDA-MB-231 breast
MCF7 breast = tested on: MCF7 breast
EKVX NSCLC = tested on: EKVX NSCLC
NCI/ADR-RES ovarian = tested on: NCI/ADR-RES ovarian
SK-MEL-28 melanoma = tested on: SK-MEL-28 melanoma
SN12C renal = tested on: SN12C renal
HS 578T breast = tested on: HS 578T breast
A549 NSCLC = tested on: A549 NSCLC
UACC-257 melanoma = tested on: UACC-257 melanoma
DU-145 prostate = tested on: DU-145 prostate
HOP-62 NSCLC = tested on: HOP-62 NSCLC
U251 CNS = tested on: U251 CNS
NCI-H23 lung = tested on: NCI-H23 lung
NCI-H226 lung = tested on: NCI-H226 lung
K-562 leukemia = tested on: K-562 leukemia
ACHN renal = tested on: ACHN renal
OVCAR-4 ovarian = tested on: OVCAR-4 ovarian
SR leukemia = tested on: SR leukemia
NCI-H522 lung = tested on: NCI-H522 lung
UO-31 renal = tested on: UO-31 renal
CCRF-CEM leukemia = tested on: CCRF-CEM leukemia
RXF 393 renal = tested on: RXF 393 renal
KM12 colon = tested on: KM12 colon
MALME-3M melanoma = tested on: MALME-3M melanoma
IGROV1 ovarian = tested on: IGROV1 ovarian
M14 melanoma = tested on: M14 melanoma
TK-10 renal = tested on: TK-10 renal
SK-OV-3 ovarian = tested on: SK-OV-3 ovarian
A498 renal = tested on: A498 renal
SK-MEL-5 melanoma = tested on: SK-MEL-5 melanoma

## COc1ccc2c(c1)=C(C=C1C=CN(O)C=C1)C(=O)N=2
SF-295 CNS
  GI50: 34.3 µM
  TGI: > 93.8 µM
SW-620 colon
  GI50: 25.5 µM
  TGI: > 67.8 µM
BT-549 breast
  GI50: 22.6 µM
  TGI: 88.1 µM
786-0 renal
  GI50: 31 µM
  TGI: > 92.3 µM
SNB-75 CNS
  GI50: 15.6 µM
  TGI: > 88.4 µM
HL-60(TB) leukemia
  GI50: 22.4 µM
  TGI: 49.9 µM
SF-268 CNS
  GI50: 28.1 µM
  TGI: 93.2 µM
LOX IMVI melanoma
  GI50: 23.9 µM
  TGI: > 67.3 µM
OVCAR-5 ovarian
  GI50: 12.7 µM
  TGI: 50.8 µM
MOLT-4 leukemia
  GI50: 31.2 µM
  TGI: > 100 µM
NCI-H460 lung
  GI50: > 50.1 µM
  TGI: > 88.3 µM
HOP-92 NSCLC
  GI50: 25.9 µM
  TGI: > 100 µM
HT29 colon
  GI50: 17.1 µM
  TGI: > 66.8 µM
OVCAR-8 ovarian
  GI50: 29.9 µM
  TGI: 99.7 µM
OVCAR-3 ovarian
  GI50: 26.2 µM
  TGI: > 78.1 µM
HCC-2998 colon
  GI50: 21.8 µM
  TGI: 47 µM
SF-539 CNS
  GI50: 28.8 µM
  TGI: > 65.8 µM
CAKI-1 renal
  GI50: 28.2 µM
  TGI: > 89.6 µM
RPMI-8226 leukemia
  GI50: 24.1 µM
  TGI: > 67.7 µM
T-47D breast
  GI50: 6.34 µM
  TGI: > 68.7 µM
MDA-MB-435
  GI50: 35 µM
  TGI: > 89.6 µM
UACC-62 melanoma
  GI50: 26.3 µM
  TGI: 86.1 µM
COLO 205 colon
  GI50: 3.84 µM
  TGI: 32.8 µM
HCT-116 colon
  GI50: 28.9 µM
  TGI: > 100 µM
SNB-19 CNS
  GI50: 10.6 µM
  TGI: 64.8 µM
HCT-15 colon
  GI50: 25 µM
  TGI: > 75.9 µM
PC-3 prostate
  GI50: 29.5 µM
  TGI: > 100 µM
SK-MEL-2 melanoma
  GI50: 26.7 µM
  TGI: 73.7 µM
MDA-MB-231 breast
  GI50: 23.6 µM
  TGI: > 100 µM
MCF7 breast
  GI50: 20.9 µM
  TGI: > 100 µM
EKVX NSCLC
  GI50: 43.9 µM
  TGI: > 100 µM
NCI/ADR-RES ovarian
  GI50: 30.3 µM
  TGI: > 86.9 µM
SK-MEL-28 melanoma
  GI50: 27 µM
  TGI: > 100 µM
SN12C renal
  GI50: 22.1 µM
  TGI: 59.2 µM
HS 578T breast
  GI50: 32.1 µM
  TGI: > 86.3 µM
A549 NSCLC
  GI50: 29.8 µM
  TGI: > 100 µM
UACC-257 melanoma
  GI50: 44.7 µM
  TGI: > 100 µM
DU-145 prostate
  GI50: 32.5 µM
  TGI: > 100 µM
HOP-62 NSCLC
  GI50: 40.2 µM
  TGI: > 100 µM
U251 CNS
  GI50: 27.3 µM
  TGI: > 100 µM
NCI-H23 lung
  GI50: 23.8 µM
  TGI: 72.3 µM
NCI-H226 lung
  GI50: 25.7 µM
  TGI: 97.5 µM
K-562 leukemia
  GI50: 3.55 µM
  TGI: > 100 µM
ACHN renal
  GI50: 23.5 µM
  TGI: > 100 µM
OVCAR-4 ovarian
  GI50: 9.96 µM
  TGI: > 100 µM
SR leukemia
  GI50: 18.2 µM
  TGI: > 100 µM
NCI-H522 lung
  GI50: 20.5 µM
  TGI: 61.6 µM
UO-31 renal
  GI50: 19.8 µM
  TGI: > 92.6 µM
CCRF-CEM leukemia
  GI50: 25.3 µM
  TGI: > 79.1 µM
RXF 393 renal
  GI50: 33.9 µM
  TGI: 98.3 µM
KM12 colon
  GI50: 17.4 µM
  TGI: 41.3 µM
MALME-3M melanoma
  GI50: 24.3 µM
  TGI: 55.9 µM
IGROV1 ovarian
  GI50: 16.2 µM
  TGI: > 94.4 µM
M14 melanoma
  GI50: 24.6 µM
  TGI: 65.9 µM
TK-10 renal
  GI50: 36.3 µM
  TGI: > 90.5 µM
SK-OV-3 ovarian
  GI50: 18.8 µM
  TGI: 54.5 µM
A498 renal
  GI50: 19.7 µM
  TGI: > 73.2 µM
SK-MEL-5 melanoma
  GI50: 22.8 µM
  TGI: 63.9 µM
